According to the NIST ThermoML archive (doi:10.1021/acs.jced.8b00547):
± gives the expanded uncertainty stated by the source.

Key:
[1] = refractive index (Na D-line) (dimensionless); conditions: 101 kPa, Liquid, Standard Abbe refractometry
[2] = 101 kPa, Liquid; for speed of sound: Single path-length method; for mass density: Vibrating tube method
[3] = xn = mol fraction of the nth substance listed; conditions: 101 kPa, Liquid, x2 = 0; for speed of sound: Single path-length method; for mass density: Vibrating tube method
[4] = refractive index (Na D-line) (dimensionless); xn = mol fraction of the nth substance listed; conditions: 101 kPa, Liquid, Standard Abbe refractometry, x2 = 0

CCC(C)O (stereo not given) [butan-2-ol]
Conditions	mass density, [2] [kg/m3]	refractive index, [1]	speed of sound, [2] [m/s]
298.15 K	802.4 ± 0.41	1.39474 ± 0.00049	1212 ± 1.4
308.15 K	793.86 ± 0.41	1.39011 ± 0.00049	1175.8 ± 1.4
318.15 K	785.26 ± 0.41	1.38547 ± 0.00049	1139.5 ± 1.4
328.15 K	775.73 ± 0.42	1.38022 ± 0.00049	1102.3 ± 1.4
338.15 K	765.75 ± 0.42	1.37621 ± 0.00049	1064.5 ± 1.4

CCC(C)O (stereo not given) [butan-2-ol] + CCCC(C)=O
Conditions	mass density, [3] [kg/m3]	refractive index, [4]	speed of sound, [3] [m/s]
298.15 K	802.4 ± 0.41	1.39474 ± 0.00049	1212 ± 1.4
308.15 K	793.86 ± 0.41	1.39011 ± 0.00049	1175.8 ± 1.4
318.15 K	785.26 ± 0.41	1.38547 ± 0.00049	1139.5 ± 1.4
328.15 K	775.73 ± 0.42	1.38022 ± 0.00049	1102.3 ± 1.4
338.15 K	765.75 ± 0.42	1.37621 ± 0.00049	1064.5 ± 1.4

CCCC(C)=O [pentan-2-one]
Conditions	mass density, [2] [kg/m3]	refractive index, [1]	speed of sound, [2] [m/s]
298.15 K	802.09 ± 0.41	1.38782 ± 0.00049	1216 ± 1.4
308.15 K	792.32 ± 0.41	1.38284 ± 0.00049	1174.4 ± 1.4
318.15 K	782.44 ± 0.41	1.37782 ± 0.00049	1133.3 ± 1.4
328.15 K	772.43 ± 0.42	1.3728 ± 0.00049	1093.6 ± 1.4
338.15 K	762.27 ± 0.42	1.36764 ± 0.00049	1053.8 ± 1.4

CC(C)O [propan-2-ol]
Conditions	mass density, [2] [kg/m3]	refractive index, [1]	speed of sound, [2] [m/s]
298.15 K	781.1 ± 0.41	1.37522 ± 0.00049	1138.5 ± 1.4
308.15 K	772.51 ± 0.42	1.37083 ± 0.00049	1103.2 ± 1.4
318.15 K	763.51 ± 0.42	1.36622 ± 0.00049	1068.1 ± 1.4
328.15 K	754.19 ± 0.42	1.36146 ± 0.00049	1032.6 ± 1.4
338.15 K	743.66 ± 0.42	1.35637 ± 0.00049	997.33 ± 1.4

CC(C)O [propan-2-ol] + CCCC(C)=O
Conditions	mass density, [3] [kg/m3]	refractive index, [4]	speed of sound, [3] [m/s]
298.15 K	781.1 ± 0.41	1.37522 ± 0.00049	1138.5 ± 1.4
308.15 K	772.51 ± 0.42	1.37083 ± 0.00049	1103.2 ± 1.4
318.15 K	763.51 ± 0.42	1.36622 ± 0.00049	1068.1 ± 1.4
328.15 K	754.19 ± 0.42	1.36146 ± 0.00049	1032.6 ± 1.4
338.15 K	743.66 ± 0.42	1.35637 ± 0.00049	997.33 ± 1.4
